Source: EP1222194B1, “7-ACYLAMINO-3-HETEROARYLTHIO-3-CEPHEM CARBOXYLIC ACID ANTIBIOTICS AND PRODRUGS THEREOF” (priority 1999, dated 2001)
In brackets after ≈: the same amount, converted by molar mass.

Key:
[1] = system: S. aureus Col8A(Meth^S)(lac^-); test: Broth microdilution MIC (NCCLS); type: cell-based; conditions: Staphylococcus aureus, Mueller-Hinton Broth, 24 h at 35 °C
Method: (§1) Compounds were evaluated for antimicrobial activity against a panel of bacterial strains using a broth microdilution assay performed as recommended by the NCCLS (1). The minimum inhibitory concentration (MIC) was defined as the lowest concentration of drug which prevented the growth of the bacteria. The following 16 organisms constituted the primary panel of evaluation:
(§2) For this primary panel, the assay was performed in Mueller-Hinton Broth (MHB) with a final bacterial inoculum of 5 x 10^5 CFU/mL (from an early-log phase culture) and a final volume of 100 µL. Control drugs, including imipenem, vancomycin, Penicillin G, dicloxacillin (vs. MSSA ATCC29213 only), and new compounds were prepared at a concentration equivalent to 2-fold the desired final concentration. Dilution of compounds were prepared directly in the plates by serial 2-fold dilution using a multichannel pipette. Positive and negative growth control were included in each plate.
(§3) The bacterial inocula were prepared as follows. For each strain one isolated colony was used to inoculate a volume of 8 mL of Mueller-Hinton broth and these cultures were incubated overnight (20h) at 35 °C in a shaking incubator. At the exception of Enterococcus strains, culture were then diluted 1:10 and allowed to grow for an additional one hour at 35 °C in a shaking incubator. The inocula were prepared by diluting the early log-phase (1h) cultures 1:1000 with fresh Mueller-Hinton broth. E. faecium and E. faecalis were prepared by diluting overnight cultures 1:333 and 1:666, respectively, with fresh Mueller-Hinton broth . A volume of 50 µL of the inocula was added to each well. […] The exact inocula were determined by applying […] of 10-fold serial dilution of the bacterial suspensions on TSA. After overnight incubation at 35 °C, colony forming units were manually counted.
(§4) Microtiter plates were incubated during 24 h at 35 °C and were read using a microtiterplate reader (Molecular Devices) at 650 nm as well as by visual observation using a microtiterplate reading mirror.

[2] = system: S. aureus PC1 (Meth^S)(lac^+); test: Broth microdilution MIC (NCCLS); type: cell-based; conditions: Staphylococcus aureus; S. aureus PC1 (Meth^S)(lac^+); Mueller-Hinton Broth, 24 h at 35 °C; read-out: MIC
Method: as §1, §2, §3, §4

[3] = system: S. aureus ATCC 13709 (Smith diffuse); test: Murine model for lethal bacteremic peritonitis (septicemia); type: in vivo, mice; conditions: Dose 5 mg/kg, subcutaneously at 0 and 2 hrs post-challenge
Method: 10 mice/group were injected intraperitoneally with 2.98x10^7 cfu S. aureus ATCC 13709 (Smith diffuse) and treated at 0 and 2hrs post-challenge with serial two-fold doses of new cephalosporin antibiotic, imipenem and vancomycin subcutaneously in order to determine the ED50. Male Swiss-Webster mice weighing originally 24.2 - 26.1 g were obtained from Charles Rivers Labs, Hollister, CA. Mice were housed 10 per cage and given free access to water and mouse chow.
Staphylococcus aureus ATCC 13709 (Smith diffuse) was grown overnight at 37 °C in Brain-heart Infusion broth (BHIB). The following morning, it was subcultured to fresh BHIB and incubated for 4-5h at 37 °C. The log-phase growth cells were washed once with physiological saline and adjusted to the desired concentration by correlation of absorbency at OD 600 nm with predetermined plate counts (NCCLS, 1994). The cell suspension was mixed with an equal volume of sterile 14% hog-gastric mucin (2). Inoculum was kept in an ice bath until used (<1h).
Mice were challenged via an injection of 0.5 mL bacterial suspension intraperitoneally. The bacterial challenge was 2.98 x 10^7 cfu/mouse.
Imipenem (Primaxin IV; Lot 7294A), vancomycin (Vancocin; Lot 8MU60W), and new cephalosporin antibiotic were prepared by serial two-fold dilutions to concentrations of 0.078 - 0.005 mg/mL, 1.2 - 0.075 mg/mL, 0.3 - 0.02 mg/mL, 0.3 - 0.02 mg/mL and 0.3 - 0.02 mg/mL respectively in sterile water (1). All antibiotics were administered subcutaneously in 0.1 mL volumes at 0 and 2 hours post-challenge. Concentrations of all compounds are based on the weight of the bioactive ingredients.
The 50% effective dose (ED50) was calculated by the probit method (3) utilizing a program entitled Probit (Nycomed-Salutar).

Row | Compound | MIC [1] | MIC [2] | Efficacy in murine septicemia %survival [3]
1 | N=C(N)NCCSCc1ncccc1SC1=C(C(=O)O)N2C(=O)[C@@H](NC(=O)/C(=N\O)c3nc(N)sc3Cl)[C@H]2SC1 [Cmpd 2-S, (7R)-7-[(Z)-2-(2-amino-5-chlorothiazol-4-yl)-2-(hydroxyimino)acetamido]-3-[2-(2-guanidinoethylthiomethyl)pyrid-3-ylthio]-3-cephem-4-carboxylic acid] | 0.125 µg/mL (≈ 0.194 µM) | 0.13 µg/mL (≈ 0.202 µM) | –
2 | NCCSCc1ccncc1SC1=C(C(=O)O)N2C(=O)[C@@H](NC(=O)/C(=N\O)c3nc(N)sc3Cl)[C@H]2SC1 [Cmpd 3, (7R)-7-[(Z)-2-(2-amino-5-chlorothiazol-4-yl)-2-(hydroxyimino)acetamido]-3-[4-(2-aminoethylthiomethyl)pyrid-3-ylthio]-3-cephem-4-carboxylic acid] | – | – | 5/80%
3 | N=C(N)NCCSCc1ncccc1SC1=C(C(=O)O)N2C(=O)[C@@H](NC(=O)/C(=N\O)c3nsc(N)n3)[C@H]2SC1 [Cmpd 2-R, (7R)-7-[(Z)-2-(5-amino-1,2,4-thiadiazol-3-yl)-2-(hydroxyimino)acetamido]-3-[2-(2-guanidinoethylthiomethyl)pyrid-3-ylthio]-3-cephem-4-carboxylic acid] | 0.25 µg/mL (≈ 0.409 µM) | 0.13 µg/mL (≈ 0.213 µM) | –
